# What was measured:
# Carbonic anhydrase 4 = target: T1, Carbonic anhydrase 4 (Bos taurus, UniProt Q95323)
# T1 sequence (Q95323 whole entry): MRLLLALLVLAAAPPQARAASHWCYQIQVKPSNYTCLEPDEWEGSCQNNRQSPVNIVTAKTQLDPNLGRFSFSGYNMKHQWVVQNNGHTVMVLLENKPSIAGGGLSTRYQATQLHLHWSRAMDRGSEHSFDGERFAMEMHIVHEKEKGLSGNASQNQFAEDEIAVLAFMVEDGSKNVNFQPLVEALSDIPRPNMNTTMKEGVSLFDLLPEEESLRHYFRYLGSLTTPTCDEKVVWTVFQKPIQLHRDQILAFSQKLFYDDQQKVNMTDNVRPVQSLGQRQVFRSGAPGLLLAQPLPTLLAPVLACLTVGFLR
# Description: Inhibitory activity against bovine lung microsomes carbonic anhydrase isozyme IV (bCA IV).
# Oryctolagus cuniculus [1] = species: Oryctolagus cuniculus
# Description: Compound was tested in vitro for corneal permeability of compound across the Denuded epithelial cornea obtained from rabbit
# [2] = octanol/water
# Description: Partition coefficient (logD) (chloroform/buffer)
# Carbonic anhydrase 2 [3] = target: T2, Carbonic anhydrase 2 (Homo sapiens, UniProt P00918)
# Description: Inhibitory activity against human cloned Carbonic anhydrase II (hCA II, cytosolic form).
# Oryctolagus cuniculus [4] = species: Oryctolagus cuniculus; remark: listed apart in the source
# Description: Compound was tested in vitro for corneal permeability of compound across the intact cornea obtained from rabbit
# [5] = Compound was tested for solubility in pH buffer, at 25 degree C.; assay type: ADME
# Carbonic anhydrase 1 [6] = target: T3, Carbonic anhydrase 1 (Homo sapiens, UniProt P00915)
# T3 sequence (P00915 whole entry): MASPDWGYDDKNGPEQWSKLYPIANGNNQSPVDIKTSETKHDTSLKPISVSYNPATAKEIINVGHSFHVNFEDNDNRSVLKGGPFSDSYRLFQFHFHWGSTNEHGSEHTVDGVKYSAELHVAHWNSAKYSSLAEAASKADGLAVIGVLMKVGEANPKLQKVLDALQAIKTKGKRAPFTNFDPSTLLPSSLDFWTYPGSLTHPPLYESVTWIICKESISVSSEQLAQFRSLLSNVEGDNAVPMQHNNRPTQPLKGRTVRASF
# Description: Inhibition of human cloned Carbonic anhydrase I (hCA I,cytosolic form)
# Oryctolagus cuniculus [7] = species: Oryctolagus cuniculus; assay type: functional, Eye
# Description: In vivo fall of IOP of normotensive rabbits after treatment with 1 drop(50 microL) of 2% solution of CA inhibitor with pH value 5.5 into the eye at 90 min.
# Oryctolagus cuniculus [8] = species: Oryctolagus cuniculus; assay type: functional, Eye; remark: listed apart in the source
# Description: In vivo fall of IOP of normotensive rabbits after treatment with 1 drop(50 microL) of 2% solution of CA inhibitor with pH value 5.5 into the eye at 30 min
# Oryctolagus cuniculus [9] = species: Oryctolagus cuniculus; assay type: functional, Eye; remark: listed apart in the source
# Description: In vivo fall of IOP of normotensive rabbits after treatment with 1 drop(50 microL) of 2% solution of CA inhibitor with pH value 5.5 into the eye at 60 min
# Oryctolagus cuniculus [10] = species: Oryctolagus cuniculus; assay type: functional, Eye; remark: listed apart in the source
# Description: In vivo fall of IOP of normotensive rabbits after treatment with 1 drop(50 microL) of 2% solution of CA inhibitor with pH value 5.5 into the eye at 0 min
# Carbonic anhydrase 1 [11] = target: T3, Carbonic anhydrase 1; remark: listed apart in the source
# Description: Inhibitory activity against human cloned carbonic anhydrase isozyme I (hCA I, cytosolic form).
# Carbonic anhydrase 2 [12] = target: T2, Carbonic anhydrase 2; remark: listed apart in the source
# Description: Inhibitory activity against human recombinant carbonic anhydrase II
# Oryctolagus cuniculus [13] = species: Oryctolagus cuniculus; assay type: functional, Eye; remark: listed apart in the source
# Description: Drug concentration was tested in ocular fluids and tissues after 1 hour following the corneal application in normotensive albino rabbits on cornea
# Oryctolagus cuniculus [14] = species: Oryctolagus cuniculus; assay type: functional, Eye; remark: listed apart in the source
# Description: Drug concentration was tested in ocular fluids and tissues after 2 hour following the corneal application in normotensive albino rabbits on cornea
# Oryctolagus cuniculus [15] = species: Oryctolagus cuniculus; assay type: functional, Eye; remark: listed apart in the source
# Description: Drug concentration was tested in ocular fluids and tissues after 2 hour following the corneal application in normotensive albino rabbits on cilirary process
# Oryctolagus cuniculus [16] = species: Oryctolagus cuniculus; assay type: functional, Eye; remark: listed apart in the source
# Description: Drug concentration was tested in ocular fluids and tissues after 2 hour following the corneal application in normotensive albino rabbits on aqueous humor
# Oryctolagus cuniculus [17] = species: Oryctolagus cuniculus; assay type: functional, Eye; remark: listed apart in the source
# Description: Drug concentration was tested in ocular fluids and tissues after 1 hour following the corneal application in normotensive albino rabbits on aqueous humor
# Oryctolagus cuniculus [18] = species: Oryctolagus cuniculus; assay type: functional, Eye; remark: listed apart in the source
# Description: Drug concentration was tested in ocular fluids and tissues after 1 hour following the corneal application in normotensive albino rabbits on cilirary process
# Oryctolagus cuniculus [19] = species: Oryctolagus cuniculus; assay type: functional, Eye; remark: listed apart in the source
# Description: In vivo fall of IOP of normotensive rabbits after treatment with 1 drop(50 microL) of 2% solution of CA inhibitor with pH value 7.4 into the eye at 90 min.
# Oryctolagus cuniculus [20] = species: Oryctolagus cuniculus; assay type: functional, Eye; remark: listed apart in the source
# Description: In vivo fall of IOP of Glaucomatous rabbits after treatment with 1 drop(50 microL) of 2% solution of CA inhibitor with pH value 7.4 into the eye at 60 min
# Oryctolagus cuniculus [21] = species: Oryctolagus cuniculus; assay type: functional, Eye; remark: listed apart in the source
# Description: In vivo fall of IOP of normotensive rabbits after treatment with 1 drop(50 microL) of 2% solution of CA inhibitor with pH value 8.4 into the eye at 60 min
# Oryctolagus cuniculus [22] = species: Oryctolagus cuniculus; assay type: functional, Eye; remark: listed apart in the source
# Description: In vivo fall of IOP of Glaucomatous rabbits after treatment with 1 drop(50 microL) of 2% solution of CA inhibitor with pH value 7.4 into the eye at 90 min.
# Oryctolagus cuniculus [23] = species: Oryctolagus cuniculus; assay type: functional, Eye; remark: listed apart in the source
# Description: In vivo fall of IOP of normotensive rabbits after treatment with 1 drop(50 microL) of 2% solution of CA inhibitor with pH value 7.4 into the eye at 60 min
# Oryctolagus cuniculus [24] = species: Oryctolagus cuniculus; assay type: functional, Eye; remark: listed apart in the source
# Description: In vivo fall of IOP of Glaucomatous rabbits after treatment with 1 drop(50 microL) of 2% solution of CA inhibitor with pH value 7.4 into the eye at 30 min
# Oryctolagus cuniculus [25] = species: Oryctolagus cuniculus; assay type: functional, Eye; remark: listed apart in the source
# Description: In vivo fall of IOP of normotensive rabbits after treatment with 1 drop(50 microL) of 2% solution of CA inhibitor with pH value 8.4 into the eye at 30 min
# Oryctolagus cuniculus [26] = species: Oryctolagus cuniculus; assay type: functional, Eye; remark: listed apart in the source
# Description: In vivo fall of IOP of normotensive rabbits after treatment with 1 drop(50 microL) of 2% solution of CA inhibitor with pH value 8.4 into the eye at 90 min.
# Oryctolagus cuniculus [27] = species: Oryctolagus cuniculus; assay type: functional, Eye; remark: listed apart in the source
# Description: In vivo fall of IOP of normotensive rabbits after treatment with 1 drop(50 microL) of 2% solution of CA inhibitor with pH value 7.4 into the eye at 30 min
# Oryctolagus cuniculus [28] = species: Oryctolagus cuniculus; assay type: functional, Eye; remark: listed apart in the source
# Description: In vivo fall of IOP of Glaucomatous rabbits after treatment with 1 drop(50 microL) of 2% solution of CA inhibitor with pH value 7.4 into the eye at 0 min
# Oryctolagus cuniculus [29] = species: Oryctolagus cuniculus; assay type: functional, Eye; remark: listed apart in the source
# Description: In vivo fall of IOP of normotensive rabbits after treatment with 1 drop(50 microL) of 2% solution of CA inhibitor with pH value 7.4 into the eye at 0 min
# Oryctolagus cuniculus [30] = species: Oryctolagus cuniculus; assay type: functional, Eye; remark: listed apart in the source
# Description: In vivo fall of IOP of normotensive rabbits after treatment with 1 drop(50 microL) of 2% solution of CA inhibitor with pH value 8.4 into the eye at 0 min
Structure (SMILES),Ki (Carbonic anhydrase 4) [nM],Ki (Carbonic anhydrase 1 [11]) [nM],Ki (Carbonic anhydrase 2 [12]) [nM],also measured
NS(=O)(=O)c1nnc(N2C(=O)c3cccnc3C2=O)s1,18,,,Kin (Oryctolagus cuniculus [1]): 7600 h⁻¹; logD [2]: 0.315; Ki (Carbonic anhydrase 2 [3]): 8 nM; Kin (Oryctolagus cuniculus [4]): 2500 h⁻¹; solubility [5]: 72 mM; Ki (Carbonic anhydrase 1 [6]): 39 nM
Nc1ccc(S(N)(=O)=O)cc1F,180,,,
CCN(C(=O)c1cccnc1C(=O)O)C1CC(C)S(=O)(=O)c2sc(S(N)(=O)=O)cc21.CCN(C(=O)c1ncccc1C(=O)O)C1CC(C)S(=O)(=O)c2sc(S(N)(=O)=O)cc21.Cl (stereo unspecified),,,,Delta IOP (Oryctolagus cuniculus [7]): 3.5 mmHg; Delta IOP (Oryctolagus cuniculus [8]): 2.4 mmHg; Delta IOP (Oryctolagus cuniculus [9]): 5.2 mmHg; Delta IOP (Oryctolagus cuniculus [10]): 0 mmHg
NS(=O)(=O)c1cccc(N2C(=O)c3cccnc3C2=O)c1,305,,,Ki (Carbonic anhydrase 2 [3]): 250 nM; Ki (Carbonic anhydrase 1 [6]): 20000 nM
NS(=O)(=O)c1ccc(NC(=O)c2cccc(C(=O)O)n2)c(Br)c1,69,575,,
NS(=O)(=O)c1nnc(NC(=O)CCN2C(=O)c3cccnc3C2=O)s1,,,,Kin (Oryctolagus cuniculus [1]): 9700 h⁻¹; logD [2]: 0.449; Ki (Carbonic anhydrase 2 [3]): 3 nM; Kin (Oryctolagus cuniculus [4]): 3800 h⁻¹; solubility [5]: 81 mM; Ki (Carbonic anhydrase 1 [6]): 18 nM
NS(=O)(=O)c1nc2ccc(NC(=O)c3cccc(C(=O)O)n3)cc2s1,11,18,3,
Nc1ccccc1S(N)(=O)=O,1310,,,
NS(=O)(=O)c1cccc(NC(=O)c2cccc(C(=O)O)n2)c1,285,,,
NS(=O)(=O)c1ccc(NC(=O)c2cccc(C(=O)O)n2)c(I)c1,,600,,
Cl.NS(=O)(=O)c1ccc(NC(=O)c2cccc(C(=O)O)n2)c(F)c1,,,,Delta IOP (Oryctolagus cuniculus [7]): 3.9 mmHg; Delta IOP (Oryctolagus cuniculus [8]): 2.5 mmHg; Delta IOP (Oryctolagus cuniculus [9]): 4.2 mmHg; Delta IOP (Oryctolagus cuniculus [10]): 0 mmHg
NS(=O)(=O)c1ccc(CCN2C(=O)c3cccnc3C2=O)cc1,54,845,9,
NS(=O)(=O)c1cc(S(N)(=O)=O)c(N2C(=O)c3cccnc3C2=O)cc1Cl,60,,,Ki (Carbonic anhydrase 2 [3]): 9 nM; Ki (Carbonic anhydrase 1 [6]): 600 nM
Nc1ccc2nc(S(N)(=O)=O)sc2c1,19,,,Ki (Carbonic anhydrase 1 [6]): 70 nM
Nc1c(S(N)(=O)=O)cc(S(N)(=O)=O)c(Cl)c1Cl,175,6100,,
CCOc1ccc2nc(S(N)(=O)=O)sc2c1 [ETHOXZOLAMIDE],,,,solubility [5]: 0.04 mM
NS(=O)(=O)c1ccc(NNC(=O)c2cccc(C(=O)O)n2)cc1,,20600,270,
NS(=O)(=O)c1cc(S(N)(=O)=O)c(NC(=O)c2cccc(C(=O)O)n2)cc1Cl,,,9,
NS(=O)(=O)c1ccccc1NC(=O)c1cccc(C(=O)O)n1,300,,,
NS(=O)(=O)c1ccc(NC(=O)c2cccc(C(=O)O)n2)c(F)c1,,,8,Kin (Oryctolagus cuniculus [1]): 7000 h⁻¹; logD [2]: 0.117; Kin (Oryctolagus cuniculus [4]): 1600 h⁻¹; solubility [5]: 66 mM
NS(=O)(=O)c1nnc(NC(=O)CCNC(=O)c2cccc(C(=O)O)n2)s1,9,19,2,
Cl.NS(=O)(=O)c1ccc(CCN2C(=O)c3cccnc3C2=O)cc1,,,,Delta IOP (Oryctolagus cuniculus [7]): 4.2 mmHg; Delta IOP (Oryctolagus cuniculus [8]): 2.7 mmHg; Delta IOP (Oryctolagus cuniculus [9]): 4.8 mmHg; Delta IOP (Oryctolagus cuniculus [10]): 0 mmHg
NS(=O)(=O)c1nc2ccc(N3C(=O)c4cccnc4C3=O)cc2s1,9,,,Ki (Carbonic anhydrase 2 [3]): 4 nM; Ki (Carbonic anhydrase 1 [6]): 12 nM
NS(=O)(=O)c1ccc(NN2C(=O)c3cccnc3C2=O)cc1,300,21500,275,
NS(=O)(=O)c1ccc(N2C(=O)c3cccnc3C2=O)c(I)c1,70,610,33,
NS(=O)(=O)c1ccc(CCO)cc1,450,,,
NS(=O)(=O)c1ccc(N2C(=O)c3cccnc3C2=O)c(Cl)c1,79,620,44,

Structure (SMILES),Ki (Carbonic anhydrase 4) [nM],Ki (Carbonic anhydrase 1 [11]) [nM],Ki (Carbonic anhydrase 2 [12]) [nM],also measured
NS(=O)(=O)c1nnc(NC(=O)c2cccc(C(=O)O)n2)s1,21,36,6,Kin (Oryctolagus cuniculus [1]): 6400 h⁻¹; logD [2]: 0.085; Kin (Oryctolagus cuniculus [4]): 1100 h⁻¹; solubility [5]: 83 mM
NS(=O)(=O)c1ccc(NC(=O)c2cccc(C(=O)O)n2)c(Cl)c1,66,,,Ki (Carbonic anhydrase 1 [6]): 600 nM
NS(=O)(=O)c1ccc(NC(=O)c2cccc(C(=O)O)n2)cc1,150,15000,,
NS(=O)(=O)c1nnc(NC(=O)c2cccc(C(=O)[O-])n2)s1.[Na+],,,,Delta IOP (Oryctolagus cuniculus [10]): 0 mmHg
NS(=O)(=O)c1ccc(CCNC(=O)c2cccc(C(=O)O)n2)cc1,,,7,
Nc1ccc(S(N)(=O)=O)cc1I,125,6000,,
Cl.NS(=O)(=O)c1nnc(NC(=O)CCN2C(=O)c3cccnc3C2=O)s1,,,,Drug concentration (Oryctolagus cuniculus [13]): 158 µM; Drug concentration (Oryctolagus cuniculus [14]): 45 µM; Drug concentration (Oryctolagus cuniculus [15]): 12 µM; Drug concentration (Oryctolagus cuniculus [16]): 42 µM; Drug concentration (Oryctolagus cuniculus [17]): 280 µM; Drug concentration (Oryctolagus cuniculus [18]): 50 µM
Cl.NS(=O)(=O)c1nc2ccc(OCCONC(=O)c3cccc(C(=O)O)n3)cc2s1,,,,Delta IOP (Oryctolagus cuniculus [7]): 9 mmHg; Delta IOP (Oryctolagus cuniculus [8]): 4 mmHg; Delta IOP (Oryctolagus cuniculus [9]): 7.2 mmHg; Delta IOP (Oryctolagus cuniculus [10]): 0 mmHg
CCN(C(=O)c1cccc(C(=O)[O-])n1)C1CC(C)S(=O)(=O)c2sc(S(N)(=O)=O)cc21.[Na+] (stereo unspecified),,,,Drug concentration (Oryctolagus cuniculus [13]): 113 µM; Delta IOP (Oryctolagus cuniculus [19]): 9.8 mmHg; Delta IOP (Oryctolagus cuniculus [20]): 10.1 mmHg; Delta IOP (Oryctolagus cuniculus [21]): 7.7 mmHg; Delta IOP (Oryctolagus cuniculus [22]): 11.8 mmHg; Drug concentration (Oryctolagus cuniculus [14]): 44 µM; Drug concentration (Oryctolagus cuniculus [15]): 10 µM; Delta IOP (Oryctolagus cuniculus [23]): 7.2 mmHg; Drug concentration (Oryctolagus cuniculus [16]): 39 µM; Delta IOP (Oryctolagus cuniculus [24]): 6.5 mmHg; Delta IOP (Oryctolagus cuniculus [25]): 3.6 mmHg; Delta IOP (Oryctolagus cuniculus [26]): 9.9 mmHg; Delta IOP (Oryctolagus cuniculus [27]): 3.5 mmHg; Delta IOP (Oryctolagus cuniculus [28]): 0 mmHg; Delta IOP (Oryctolagus cuniculus [29]): 0 mmHg; Delta IOP (Oryctolagus cuniculus [30]): 0 mmHg; Drug concentration (Oryctolagus cuniculus [17]): 278 µM; Drug concentration (Oryctolagus cuniculus [18]): 47 µM
NS(=O)(=O)c1cc(S(N)(=O)=O)c(N2C(=O)c3cccnc3C2=O)c(Cl)c1Cl,69,,,Ki (Carbonic anhydrase 2 [3]): 12 nM; Ki (Carbonic anhydrase 1 [6]): 500 nM
NS(=O)(=O)c1ccc(CNC(=O)c2cccc(C(=O)O)n2)cc1,,,36,
NS(=O)(=O)c1nc2ccc(OCCONC(=O)c3cccc(C(=O)O)n3)cc2s1,10,15,3,
NS(=O)(=O)c1ccccc1N1C(=O)c2cccnc2C1=O,310,21000,280,
NS(=O)(=O)c1ccc(CCONC(=O)c2cccc(C(=O)O)n2)cc1,105,2000,15,
Nc1ccc(S(N)(=O)=O)cc1Br,66,,,
NS(=O)(=O)c1ccc(N2C(=O)c3cccnc3C2=O)cc1,170,,,Ki (Carbonic anhydrase 2 [3]): 132 nM; Ki (Carbonic anhydrase 1 [6]): 15500 nM
Cn1nc(S(N)(=O)=O)s/c1=N\C(=O)c1cccc(C(=O)O)n1,19,35,7,Kin (Oryctolagus cuniculus [1]): 8500 h⁻¹; logD [2]: 0.428; Kin (Oryctolagus cuniculus [4]): 3600 h⁻¹; solubility [5]: 79 mM
NS(=O)(=O)c1ccc(CN2C(=O)c3cccnc3C2=O)cc1,79,,42,
NCCC(=O)Nc1nnc(S(N)(=O)=O)s1,125,,,
CCN(C(=O)c1cccnc1C(=O)O)C1CC(C)S(=O)(=O)c2sc(S(N)(=O)=O)cc21.CCN(C(=O)c1ncccc1C(=O)O)C1CC(C)S(=O)(=O)c2sc(S(N)(=O)=O)cc21 (stereo unspecified),18,450,,
Cl.NS(=O)(=O)c1nnc(N2C(=O)c3cccnc3C2=O)s1,,,,Delta IOP (Oryctolagus cuniculus [7]): 8.1 mmHg; Delta IOP (Oryctolagus cuniculus [8]): 5.4 mmHg; Delta IOP (Oryctolagus cuniculus [9]): 9 mmHg; Delta IOP (Oryctolagus cuniculus [10]): 0 mmHg
NS(=O)(=O)c1ccc(N2C(=O)c3cccnc3C2=O)c(Br)c1,75,605,31,
NS(=O)(=O)c1ccc(CONC(=O)c2cccc(C(=O)O)n2)cc1,120,2050,20,
NS(=O)(=O)c1nc2ccc(OCCO)cc2s1,15,[…],,
NS(=O)(=O)c1nc2ccc(ONC(=O)c3cccc(C(=O)O)n3)cc2s1,13,16,2,
NS(=O)(=O)c1cc(S(N)(=O)=O)c(NC(=O)c2cccc(C(=O)O)n2)c(Cl)c1Cl,55,450,10,
NS(=O)(=O)c1ccc(N2C(=O)c3cccnc3C2=O)c(F)c1,46,540,10,

# — ChEMBL document CHEMBL1132301, “Carbonic anhydrase inhibitors. Synthesis of water-soluble, topically effective, intraocular pressure-lowering aromatic/heterocyclic sulfonamides containing cationic or anionic moieties: is the tail more important than the ring?” (J Med Chem, 1999)
